Test results published in patent US20180051017A1, “AGENT FOR TREATMENT OF SCHIZOPHRENIA” (Sumitomo Dainippon Pharma Co., Ltd., priority 2002, published 2018).
Where a name gives a salt, the structure may show the parent alone.

Test system: patients with schizophrenia in the acute exacerbation phase
Assay: First stage phase II clinical trial, placebo-controlled double-blind: efficacy (BPRS, PANSS, CGI-S/I)
Format: in vivo, human
Procedure: According to the procedures as shown in Table 1 as described below, the placebo-controlled double blind experiment was done on 149 patients with schizophrenia in the acute exacerbation phase at 15 facilities in USA. The efficacy and safeness were studied when SM-13496 at a dose of 40 mg or 120 mg, or a placebo was orally administered once a day for 6 weeks after placebo washout.

**Q.** Which results are given for `O=C1[C@@H]2[C@@H]3CC[C@@H](C3)[C@@H]2C(=O)N1C[C@@H]1CCCC[C@H]1CN1CCN(c2nsc3ccccc23)CC1` [SM-13496, (1R,2S,3R,4S)-N-[(1R,2R)-2-[4-(1,2-benzoisothiazol-3-yl)-1-piperazinyl-methyl]-1-cyclohexylmethyl]-2,3-bicyclo[2.2.1]heptanedicarboximide hydrochloride]?
**A.** Reductions in BPRS, CGI-I and CGI-S scores at end of trial compared to placebo (40 mg or 120 mg, 6 weeks after the administration): statistically significant; Responder (BPRS reduction 20% or more, or CGI-I 1 or 2), Number (40 mg orally once a day for 6 weeks, 47 subjects, p 0.002 vs placebo): 26; BPRS Total Score, change from before administration at end of trial (LOCF), Average (SD) (40 mg orally once a day for 6 weeks, 47 subjects, p 0.014 vs placebo): −10.0; PANSS Total Score, change from before administration at end of trial (LOCF), Average (SD) (40 mg orally once a day for 6 weeks, 47 subjects, p 0.063 vs placebo): −14.1; CGI-I at end of trial, Average (SD) (40 mg orally once a day for 6 weeks, n = 47, p 0.013 vs placebo): 3.2 (1.56); Ratio of responders compared to placebo (40 mg- or 120 mg-treated group): statistically significant difference; BPRS Total Score, change from before administration at end of trial (LOCF), Average (SD) (120 mg orally once a day for 6 weeks, 44 subjects, p 0.003 vs placebo): −11.3 (8.89); Responder (BPRS reduction 20% or more, or CGI-I 1 or 2), Number (120 mg orally once a day for 6 weeks, 44 subjects, p 0.007 vs placebo): 22; PANSS Total Score, change from before administration at end of trial (LOCF), Average (SD) (120 mg orally once a day for 6 weeks, 44 subjects, p 0.010 vs placebo): −17.4 (15.70); CGI-I at end of trial, Average (SD) (120 mg orally once a day for 6 weeks, n = 42, p 0.005 vs placebo): 3.0 (1.29); Reduction in PANSS score at end of experiment compared to placebo (120 mg, 6 weeks): statistically significant; BPRS total score (LOCF) change with time compared to placebo (FIG. 1) (SM-13496-treated groups, at 2 weeks or later, p<0.05): statistically significantly reduced
